Experiments:
[1] = tested on: PD1 signal sequence plus 10 amino acids fused to Gaussia Luciferase (PD1-ss+10aa/Gaussia Luciferase); assay: Dox Induced PD1-ss-Gluc Assay; format: cell-based; settings: 24 hr, 293FRT/TO; read-out: 24 hr Dox Inducible PD1ssGluc 293FRT/TO: Mean IC50
Procedure, shortened: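 Compound dilutions in DMSO/media containing doxycycline were applied to a stable, inducible 293 T-REx line carrying the luciferase fusion, then incubated at 37 °C, 5% CO2. Where stereochemistry is not drawn, values relate to isomer mixtures.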

[2] = tested on: full length TNFα (amino acids 1-233) fused to Gaussia Luciferase; assay: Dox Induced TNFα-FL-Gluc Assay; format: cell-based; settings: 24 hr, 293FRT/TO; read-out: 24 hr Dox Inducible TNFaFLGluc 293FRT/TO: Mean IC50
Procedure, shortened: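 Compounds diluted in DMSO/medium with doxycycline were incubated at 37° C, 5% CO2 with 293 T-REx cells stably carrying a Tet-regulated TNFα(1-233)-Gaussia luciferase construct. Data for structures drawn without stereochemistry refer to stereoisomer mixtures.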

[3] = tested on: full length IL-2 (amino acids 1-153) fused to Gaussia Luciferase; assay: Dox Induced IL2-FL-Gluc Assay; format: cell-based; settings: 24 hr, 293FRT/TO; read-out: 24 hr Dox Inducible IL2FLGluc 293FRT/TO: Mean IC50
Text: FIp-In 293 T-REx™ cells were transfected with pcDNA™5/FRT/TO plasmid inserted with cDNA encoding Gaussia Luciferase fused to the 3′ end of cDNA encoding full length IL-2 (amino acids 1-153). Transfected cells were selected for resistance to the selectable markers Hygromycin and Blasticidin to create a stable cell line that contained the IL-2-FL/Gaussia Luciferase cDNA insert whose expression was regulated under the T-REx™ system. The day before assay, cells were trypsinized and plated in 384-well tissue culture plates. The next day, compound dilutions in DMSO/media containing doxycycline were added to the wells and incubated at 37° C., 5% CO2.
For chemical structures that include one or more stereoisomers, but are illustrated without indicating stereochemistry, the assay data refers to a mixture of stereoisomers.

[4] = tested on: multiple myeloma cell line NCl-H929; assay: H929 Cell Viability Assay; format: cell-based, human; settings: Homo sapiens, NCI-H929, 48 h, H929, read-out: 48 hr H929 Viability Celltiter-Glo: Mean EC50
Procedure, shortened: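 Viability was determined by CellTiter-Glo luminescence after a 48 h, 37 °C exposure of NCI-H929 cells to serial compound dilutions in medium containing 10% FBS. Where stereochemistry is not shown, values refer to a mix of stereoisomers.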

[5] = tested on: multiple myeloma cell line U266B1; assay: U266 Cell Viability Assay; format: cell-based, human; settings: Homo sapiens, U-266; 48 hr, U266; read-out: 48 hr U266 Viability Celltiter-Glo: Mean EC50
Procedure, shortened: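 Viability was measured by CellTiter-Glo luminescence after 48 h compound exposure at 37° C, 5% CO2. The cells were U266B1 multiple myeloma cells grown in RPMI 1640 plus 10% FBS. Where stereochemistry is not shown, values apply to the stereoisomer mixture.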

[6] = In Vitro Microsome Stability Assay (human); format: in vitro ADME; settings: human, 30 min, NADPH
Procedure, shortened: (§1)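 Test article, added from a 0.25 mM DMSO stock, was incubated with liver microsomes (20 mg/mL stock) in 0.1 M potassium phosphate at 37° C, with the reaction started by NADPH. Samples were quenched with acetonitrile containing internal standard at 0 and 30 min and analysed by LC-MS/MS. Values are % remaining at 30 min versus 0 min, using IS-normalised AUC ratios.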

[7] = In Vitro Microsome Stability Assay (mouse); format: in vitro ADME; settings: mouse, 30 min, NADPH
Procedure, shortened: as §1

[8] = In Vitro Microsome Stability Assay (rat); format: in vitro ADME; settings: rat, 30 min, NADPH
Procedure, shortened: as §1

[9] = In Vitro Microsome Stability Assay (monkey); format: in vitro ADME; settings: monkey, 30 min, NADPH
Procedure, shortened: as §1

## C[C@H]1CN(S(=O)(=O)c2ccc(N(C)C)cc2)CCCN(CC2CCCCC2)CCCN(S(=O)(=O)N2CC[C@H](c3ccccc3)C2)C1 [A91, 4-{[(3S)-9-(cyclohexylmethyl)-3-methyl-5-{[(3 R)-3-phenylpyrrolidin-1-yl]sulfonyl}-1,5,9-triazacyclododecan-1-yl]sulfonyl}-N,N-dimethylaniline]
[1]
  IC50: 193 nM
[2]
  IC50: 2460 nM
[3]
  IC50: 377 nM
[4]
  EC50: 3010 nM
[5]
  EC50: 14700 nM
[6]
  Liver Microsome Stability-% Left after 30 min w/ NADPH (%) Human: 23.7%
[7]
  Liver Microsome Stability-% Left after 30 min w/ NADPH (%) Mouse: 25.4%
[8]
  Liver Microsome Stability-% Left after 30 min w/ NADPH (%) Rat: 21.6%
[9]
  Liver Microsome Stability-% Left after 30 min w/ NADPH (%) Monkey: 21.8%

## C[C@H]1CN(S(=O)(=O)c2ccc(N(C)C)cc2)CCCN(CC2CCCCC2)CCCN(S(=O)(=O)N2CCC(Oc3ccccc3)CC2)C1 [A92, 4-{[(3S)-9-(cyclohexylmethyl)-3-methyl-5-[(4-phenoxypiperidin-1-yl)sulfonyl]-1,5,9-triazacyclododecan-1-yl]sulfonyl}-N,N-dimethylaniline]
[1]
  IC50: 304 nM
[2]
  IC50: > 25000 nM
[3]
  IC50: 519 nM
[4]
  EC50: > 25000 nM
[5]
  EC50: > 25000 nM
[6]
  Liver Microsome Stability-% Left after 30 min w/ NADPH (%) Human: 44.3%
[7]
  Liver Microsome Stability-% Left after 30 min w/ NADPH (%) Mouse: 40.8%
[8]
  Liver Microsome Stability-% Left after 30 min w/ NADPH (%) Rat: 51.8%
[9]
  Liver Microsome Stability-% Left after 30 min w/ NADPH (%) Monkey: 40.4%

## C[C@H]1CN(S(=O)(=O)c2ccc(N(C)C)cc2)CCCN(CC2CCCCC2)CCCN(S(=O)(=O)N2CCN(c3ncccn3)CC2)C1 [A93, 4-{[(3S)-9-(cyclohexylmethyl)-3-methyl-5-{[4-(pyrimidin-2-yl)piperazin-1-yl]sulfonyl}-1,5,9-triazacyclododecan-1-yl]sulfonyl}-N,N-dimethylaniline]
[1]
  IC50: 670 nM
[2]
  IC50: > 25000 nM
[3]
  IC50: 911 nM
[4]
  EC50: 10400 nM
[5]
  EC50: > 25000 nM
[6]
  Liver Microsome Stability-% Left after 30 min w/ NADPH (%) Human: 0.84%
[7]
  Liver Microsome Stability-% Left after 30 min w/ NADPH (%) Mouse: 0.4%
[8]
  Liver Microsome Stability-% Left after 30 min w/ NADPH (%) Rat: 0.51%
[9]
  Liver Microsome Stability-% Left after 30 min w/ NADPH (%) Monkey: 0.18%

## C[C@H]1CN(S(=O)(=O)c2ccc(N(C)C)cc2)CCCN(CC2CCCCC2)CCCN(S(=O)(=O)N2CCN(c3ccccc3F)CC2)C1 [A94, 4-{[(3S)-9-(cyclohexylmethyl)-5-{[4-(2-fluorophenyl)piperazin-1-yl]sulfonyl}-3-methyl-1,5,9-triazacyclododecan-1-yl]sulfonyl}-N,N-dimethylaniline]
[1]
  IC50: 36.4 nM
[2]
  IC50: 550 nM
[3]
  IC50: 78.3 nM
[4]
  EC50: 800 nM
[5]
  EC50: > 25000 nM
[6]
  Liver Microsome Stability-% Left after 30 min w/ NADPH (%) Human: 42.1%
[7]
  Liver Microsome Stability-% Left after 30 min w/ NADPH (%) Mouse: 45.7%
[8]
  Liver Microsome Stability-% Left after 30 min w/ NADPH (%) Rat: 45.5%
[9]
  Liver Microsome Stability-% Left after 30 min w/ NADPH (%) Monkey: 30.3%

## C[C@H]1CN(S(=O)(=O)c2ccc(N(C)C)cc2)CCCN(CC2CCCCC2)CCCN(S(=O)(=O)N2CCN(c3cccc(F)c3)CC2)C1 [A95, 4-{[(3S)-9-(cyclohexylmethyl)-5-{[4-(3-fluorophenyl)piperazin-1-yl]sulfonyl}-3-methyl-1,5,9-triazacyclododecan-1-yl]sulfonyl}-N,N-dimethylaniline]
[1]
  IC50: 198 nM
[2]
  IC50: 4900 nM
[3]
  IC50: 391 nM
[4]
  EC50: 6710 nM
[5]
  EC50: > 25000 nM
[6]
  Liver Microsome Stability-% Left after 30 min w/ NADPH (%) Human: 43.9%
[7]
  Liver Microsome Stability-% Left after 30 min w/ NADPH (%) Mouse: 54.2%
[8]
  Liver Microsome Stability-% Left after 30 min w/ NADPH (%) Rat: 43.1%
[9]
  Liver Microsome Stability-% Left after 30 min w/ NADPH (%) Monkey: 46.1%

— patent US11578055B2, “Triazacyclododecansulfonamide (“TCD”)-based protein secretion inhibitors” (KEZAR LIFE SCIENCES, priority 2018, dated 2023)
